Results on 2 compounds are retold here after patent US20230398124A1, “SEVEN-MEMBERED RING COMPOUNDS AND METHOD OF USE THEREOF” (Invea Therapeutics, Inc., priority 2022, published 2023).

“Also recorded” adds a separate entry of the source. Bounds are passed on as bounds.

Experiment [1] relates to Mdr2 knock out (Mdr2 KO) mice. Put plainly: liver staining in Mdr2 KO mice: collagen deposition (Fast Green/Sirius Red), hydroxyproline, F4/80, Desmin. The experiment is classed as in vivo, mouse. The settings on record: for portal tract F4/80 immunoreactivity (macrophage marker) / expression of desmin levels (cholangiocyte activation marker): vs untreated Mdr2 KO; for collagen deposition: Fast Green/Sirius Red staining. Here is the method:
Mdr2 knock out (Mdr2 KO) mice are a genetic mouse model of PSC and display similar phenotypes to human PSC. Collagen content, ductular reaction and inflammation are elevated in Mdr2 knock out mice. Mdr2 KO mice also have enhanced mast cell (MC) presence. Total bile acid (TBA) content increases in Mdr2 knock out mice. Accumulation of chymase and tryptase positive mast cells (MC) in the liver was evaluated by immunohistochemistry. Metabolic parameters such as Total Bile Acids (serum and liver), Ductular Reaction (CK-19), Hepatic Fibrosis (Fast Green Sirius Red staining), Collagen deposition, Hydroxyproline levels, Fibrotic Gene Markers, cholangiocyte Activation (Desmin), inflammation and mast cell products, (F4/80, which is a macrophage marker) and Senescence and SASP markers (TGF-β1, p21, p16) are measured to determine the effect of compound 1 in mouse model of hepatobiliary disease.
(§1) Animal: 10-12 weeks old Mdr2 homozygous knockout (Mdr2 KO) mice were raised on FVB/NJ background. All mice were maintained in a temperature-controlled environment (20° C. to 22° C.) with 12:12-hour light/dark cycles and fed standard chow with access to drinking water ad libitum.
Fibrosis in liver was evaluated by quantitatively estimating collagen deposition with Fast green and Sirius red staining of formalin fixed paraffin-embedded liver sections ([…]). Hepatic fibrosis and collagen deposition is evaluated by quantitative Fast Green/Sirius Red staining. Macrophage accumulation was determined by staining for F4/80 antibody. (See FIG. 4) Cholangiocyte activation was analyzed by immunofluorescence for Desmin (See FIG. 5) and CK19 (marker for cholangiocytes). (See FIG. 9)

For experiment [2], the system named is DSS-induced colitis C57Bl/6N mice. Put plainly: DSS-induced colitis mouse model (body weight loss, occult blood, stool consistency, DAI). Type of experiment: in vivo. The settings on record: for DAI score: 20 mg/kg i.p. QD day 3 to 9, 0-4 scale, DSS vehicle 3 and above; for body weight loss (score) / occult blood score / rectal bleeding / stool consistency score / diarrhea: i.p. QD day 3 to 9, Compound 1 20 mg/kg, anti-TNF 15 mg/kg, observed 0-10 days. As to the method:
Animal: For the DSS-induced acute model of experimental colitis, 8-week-old C57Bl/6N mice (weight between 17 and 20 grams, all females from Charles River Laboratories) were used. All mice were maintained in a temperature-controlled environment (20° C.±4° C.) with 12:12-hour light/dark cycles, relative humidity was maintained at 55%±10%, ventilation with 8-10 air changes per hour and fed standard chow with access to drinking water ad libitum.
Mice were treated with one oral cycles of 2.5% DSS (weight/volume) (DSS, molecular mass, 40 kDa; MP Biomedicals), characterized by 7 days of DSS exposure in drinking water, followed by 3 days of regular drinking water.
Administration of drugs: 3 days after starting DSS administration, mice were treated with testing drugs up to day 9, according to the experimental groups and the dose regimen described in table below. 0.5% (w/v) Hydroxypropyl cellulose was used as the vehicle.
From day 0 to 7, the animals received DSS in drinking water and the drugs were administered from day 3 to 9. Body weight and clinical observations such as diarrhea and bleeding from rectum were recorded daily post colitis induction until day 10.
Disease activity Index (DAI) and body weight loss were measured. Colitis severity was calculated using a disease activity index (DAI) score based on daily evaluation of body weight, stool consistency, and presence of blood in the stools, as determined using Hemoccult SENSA Cards (Beckman Coulter).
Grading of intestinal inflammation was determined according to the criteria proposed by Cooper et al (Cooper H S et al., Clinicopathologic study of dextran sulfate sodium experimental murine colitis. Lab Invest. 1993 August; 69(2):238-49, the DAI has been determined by scoring changes in variety of factors such as weight loss, stool consistency, and occult bleeding. The weight loss score ranges from 0 to 4, where zero signals no weight loss, score of 1 indicates the presence of 1-5% weight loss, a score of 2 signals the presence of 5-10% weight loss, a score of 3 signals the presence of 10-20% weight loss and a score of 4 represents greater than 20% weight loss. Likewise, the stool consistency score ranges from 0 to 4 with a score of zero representing normal stools, a score of 2 represents loose stools and a score of 4 represents diarrhea. The rectal bleeding is observed by scores ranging from 0 to 4, where a score of zero represents normal or no significant bleeding, a score of 2 indicates the presence of occult bleeding and a score of 4 indicates the presence of gross bleeding. A 5-point (0-4) DAI was obtained by calculating an average of body weight score, stool consistency and rectal bleeding.

Experiment [3] has as its system Mdr2 knock out (Mdr2 KO) mice. The experiment is described as follows: quantitative real time PCR of mast cell, pro-fibrotic and biliary senescence markers in liver of Mdr2 KO mice. The experiment is classed as in vivo, mouse. The settings on record: for Timp2 expression (pro-fibrotic marker): Mdr2 KO = 3.41885191, p<0.0001. Here is the method: as §1
Liver inflammation, fibrosis and biliary senescence was evaluated in liver sections by quantitative real time PCR for mast cell markers such as Mcpt1, Fcer1a, Tpsb2 (See FIG. 3) and pro-fibrotic markers such as Col1a1, Timp2 and Tgfb1, (See FIG. 8)_biliary senescence markers such as Cdkn2a, Cdkn2c, Tgfb1 & Gl1bl. (See FIG. 10). Liver tissue was lysed, and total RNA was isolated using trizol and fold change was calculated using ΔΔCt method.

Experiment [4] has as its system Mdr2 knock out (Mdr2 KO) mice. The settings on record: 20 mg/kg i.p., vs untreated Mdr2 KO. Here is the method: Mdr2 knock out (Mdr2 KO) mice are a genetic mouse model of PSC and display similar phenotypes to human PSC. Collagen content, ductular reaction and inflammation are elevated in Mdr2 knock out mice. Mdr2 KO mice also have enhanced mast cell (MC) presence. Total bile acid (TBA) content increases in Mdr2 knock out mice. Accumulation of chymase and tryptase positive mast cells (MC) in the liver was evaluated by immunohistochemistry.
as §1

Experiment [5] deals with Mdr2 knock out (Mdr2 KO) mice. Put plainly: liver and serum total bile acid accumulation in Mdr2 KO mice, colorimetric assay. Type of experiment: in vivo, mouse. The settings on record: 20 mg/kg i.p. As to the method: as §1
Liver and serum bile acid accumulation was evaluated by using a colorimetric assay from Crystal Chem Inc (cat #80471). For Liver, total bile acid (TBA) was extracted from homogenized liver. For serum, (TBAs) were measured in serum by enzyme immunoassay (EIA). 3-alpha-hydroxysteroid dehydrogenase and Nicotinamide adenine dinucleotide (NAD) converted TBA into 3-keto steroids and NADH. The NADH reacts with nitroblue tetrazolium (NBT) to form a dye and this is measured at 540 nm absorbance.

On to `CCC[C@@H](NC(=O)N1C/C(=N/OCC)NC[C@H](Cc2cc(Cl)ccc2OC)C1=O)c1ccc(C(=O)O)c(N)c1` [Compound 1, 2-amino-4-[(1R)-1-({[(3Z,6S)-6-(5-chloro-2-methoxybenzyl)-3-(ethoxyimino)-7-oxo-1,4-diazepan-1-yl]carbonyl}amino)butyl]benzoic acid], for which, in experiment [1] (20 mg/kg i.p.), the “portal tract F4/80 immunoreactivity (macrophage marker)” value is “reduces”. The “expression of desmin levels (cholangiocyte activation marker)” value in experiment [1] is “reduction”. Moreover, the colon length reduction result in experiment [2] (20 mg/kg i.p. QD day 3 to 9) is listed as “significantly inhibits”. In addition, in experiment [2] (20 mg/kg), the DAI score result was “significantly attenuated”. In experiment [2] (listed as compound 1, 20 mg/kg), the DAI score is under 2. In experiment [2], the “body weight loss (score)” value is “significantly attenuated”, the “occult blood score / rectal bleeding” value is “significantly attenuated” and the “stool consistency score / diarrhea” value is listed as “significantly attenuated”.
With `CCC[C@@H](NC(=O)N1C/C(=N/OCC)NC[C@H](Cc2cc(Cl)ccc2OC)C1=O)c1ccc(C(=O)O)c(N)c1` [Compound 1 monoacetic acid solvate, 2-amino-4-[(1R)-1-({[(3Z,6S)-6-(5-chloro-2-methoxybenzyl)-3-(ethoxyimino)-7-oxo-1,4-diazepan-1-yl]carbonyl}amino)butyl]benzoic acid monoacetic acid solvate], the “Tgfb1 expression (pro-fibrotic marker)” value in experiment [3] (10 mg/kg i.p., Mdr2 KO = 1.72254177, p=0.0138) came out at 1.133 fold change; in experiment [3] (20 mg/kg i.p., Mdr2 KO = 1.72254177, p=0.0018), 0.8986 fold change. For the same compound, the “Fcer1 expression (mast cell marker)” value in experiment [3] (10 mg/kg i.p., Mdr2 KO = 2.20989385, p=0.0058) was found to be 1.532 fold change; in experiment [3] (20 mg/kg i.p., Mdr2 KO = 2.20989385, p<0.0001), 0.8866 fold change. In addition, the “Tpsb2 expression (mast cell marker)” value worked out at 1.53 fold change in experiment [3] (10 mg/kg i.p., Mdr2 KO = 2.21107066, p=0.8750) and 1.341 fold change in experiment [3] (20 mg/kg i.p., Mdr2 KO = 2.21107066, p=0.7774). The “Mcpt1 expression (mast cell marker)” value in experiment [3] (10 mg/kg i.p., Mdr2 KO = 2.33385383, p=0.0237) amounted to 0.8094 fold change; in experiment [3] (20 mg/kg i.p., Mdr2 KO = 2.33385383, p=0.0178), 0.723 fold change. Besides, the “Col1a1 expression (pro-fibrotic marker)” value in experiment [3] (10 mg/kg i.p., Mdr2 KO = 3.28243911, p=0.0005) came out at 1.509 fold change; in experiment [3] (20 mg/kg i.p., Mdr2 KO = 3.28243911, p<0.0001), 0.9248 fold change. Moreover, the “Timp2 expression (pro-fibrotic marker)” value in experiment [3] (10 mg/kg i.p.) was 1.539 fold change; in experiment [3] (20 mg/kg i.p.), 0.9494 fold change. In addition, in experiment [3] (20 mg/kg i.p., Mdr2 KO = 4.188847, p=0.0002), the “Tgfb1 expression (senescence marker)” value was 1.821 fold change. The “Glb1l expression (senescence marker)” value in experiment [3] (20 mg/kg i.p., Mdr2 KO = 13.02486, p=0.0001) turned out to be 3.319 fold change. In experiment [3] (20 mg/kg i.p., Mdr2 KO = 16.05029, p=0.0050), the “Cdkn2c expression (senescence marker)” value was determined as 12.66 fold change. Further, the “Cdkn2a expression (senescence marker)” value in experiment [3] (20 mg/kg i.p., Mdr2 KO = 21.49752, p<0.0001) was found to be 3.739 fold change. For the same compound, the hydroxyproline accumulation worked out at 4.219 in experiment [1] (10 mg/kg i.p., Mdr2 KO = 4.871969, p=0.6426) and 2.972 in experiment [1] (20 mg/kg i.p., Mdr2 KO = 4.871969, p=0.0078). For the same compound, the “portal tract F4/80 immunoreactivity (macrophage marker)” value in experiment [1] (20 mg/kg i.p.) is recorded as “decrease”. For the same compound, the collagen deposition entry in experiment [1] is “restricted”; in experiment [1] (listed as compound 1 monoacetic acid solvate) it was “decrease”. Moreover, the “expression of desmin levels (cholangiocyte activation marker)” value in experiment [1] is “decrease”. Moreover, the “level of inflammatory marker Tpbs2” value in experiment [4] is reported as “significantly reduced”. Further, the “level of inflammatory marker mMCP1” value in experiment [4] is listed as “significantly reduced”. Further, the DAI score result in experiment [2] was “decrease”. The “body weight loss (score)” value in experiment [2] is given as “reduction in the body weight loss; also recorded: decrease”. Further, in experiment [2], the “occult blood score / rectal bleeding” value was “reduction in bleeding; also recorded: decrease”. In experiment [2], the “stool consistency score / diarrhea” value is “reduction in diarrhea; also recorded: decrease”. In addition, in experiment [5] (Mdr2 KO vehicle = 3.498252, p<0.0001), the “Liver total bile acid content” value is 1.797 µM. In experiment [5] (Mdr2 KO vehicle = 62.04502, p<0.0001), the “serum bile acid content” value turned out to be 26.24 µM.
